Each molecule was assayed against T1, Prostaglandin G/H synthase 1 (Ovis aries) (UniProt P05979) (assay: Inhibition of ovine COX1 at 100 uM).
T1 sequence (whole entry): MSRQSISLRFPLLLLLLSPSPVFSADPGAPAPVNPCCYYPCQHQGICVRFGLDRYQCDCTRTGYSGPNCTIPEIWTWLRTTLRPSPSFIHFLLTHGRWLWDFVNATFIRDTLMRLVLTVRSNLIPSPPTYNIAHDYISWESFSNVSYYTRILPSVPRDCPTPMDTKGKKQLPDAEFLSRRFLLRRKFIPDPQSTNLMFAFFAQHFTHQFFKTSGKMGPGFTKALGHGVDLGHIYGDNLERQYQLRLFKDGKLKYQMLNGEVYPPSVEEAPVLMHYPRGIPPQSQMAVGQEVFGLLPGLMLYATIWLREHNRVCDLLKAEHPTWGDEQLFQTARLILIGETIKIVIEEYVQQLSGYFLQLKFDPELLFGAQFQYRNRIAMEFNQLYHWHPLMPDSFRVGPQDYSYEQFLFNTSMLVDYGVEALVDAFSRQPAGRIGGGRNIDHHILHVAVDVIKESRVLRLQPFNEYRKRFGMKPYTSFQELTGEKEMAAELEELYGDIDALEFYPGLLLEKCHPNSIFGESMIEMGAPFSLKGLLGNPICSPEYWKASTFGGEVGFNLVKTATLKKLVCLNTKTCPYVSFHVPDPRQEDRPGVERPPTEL

Row | inhibition | SMILES
1 | 44% | C[C@@]1(CO)CCC[C@]2(C)[C@@H](CCO)[C@](C)(O)CC[C@@H]12
2 | 29% | C/C(=C\C(=O)O)CC[C@@H]1[C@@]2(C)CCC[C@@](C)(CO)[C@@H]2CC[C@@]1(C)O
3 | 2% | CC(=O)OC[C@]1(C)CCC[C@]2(C)[C@@H](CC/C(C)=C/C(=O)O)[C@](C)(O)CC[C@@H]12
4 | 18% | CC(=O)OCC[C@@H]1[C@@]2(C)CCC[C@@](C)(COC(C)=O)[C@@H]2CC[C@@]1(C)O

Source: ChEMBL document CHEMBL1157397, “Cyclooxygenase (COX)-1 and -2 inhibitory labdane diterpenes from Crassocephalum mannii” (J Nat Prod, 2008)
